Key:
[1] = system: Escherichia coli ATCC 112229; test: Time kill method (ASTM E 2315), E. coli; assay type: cell-based; details: 0.5% ADBAC Quat
Method: (§1) (1) Determination of Time Kill Activity: • (a) The activity of antimicrobial compositions was measured by the time kill method [ASTM E 2315 Standard Guide for Assessment of Antimicrobial Activity Using a Time Kill Procedure], whereby the survival of challenged organisms exposed to an antimicrobial test composition is […] as a function of time. In this test, a diluted aliquot of the composition is brought into contact with a known population of test bacteria for a specified time period at a specified temperature. The test composition is neutralized at the end of the time period, which arrests the antimicrobial activity of the composition. The percent or, alternatively, log reduction from the original bacteria population is calculated. In general, the time kill method is known to those skilled in the art. In addition, comparative data on the foam profile of representative systems is shown. • (b) The composition can be tested at any concentration from 0.01-100%. The choice of which concentration to use is at the discretion of the investigator, and suitable concentrations are readily determined by those skilled in the art. All testing if performed in triplicate, the results are combined, and the average log reduction is reported. • (c) The choice of contact time period also is at the discretion of the investigator. Any contact time period can be chosen. Typical contact times range from 15 second to 5 minutes, with 30 seconds and 1 minute being typical contact times. The contact temperature also can be any temperature, typically room temperature, or about 25 degrees Celsius. • (d) The microbial suspension, or test inoculum, is prepared by growing a microbial culture on any appropriate solid media (e.g., agar). The microbial population then is washed from the agar with sterile physiological saline and the population of the microbial suspension is adjusted to about 10^8 colony forming units per ml (cfu/ml). • (e) The table below lists the test microbial cultures used in the following tests and includes the name of the bacteria, the ATCC (American Type Culture Collection) identification number, and the abbreviation for the name of the organism used hereafter.
(§2) S. aureus is a Gram positive bacteria, whereas, E. coli is a Gram negative bacteria.
(§3) The log reduction is calculated using the formula: Log reduction=log10(numbers control)−log10(test sample survivors).
(§4) The following table correlates percent reduction in microbial population to log reduction: […]

[2] = system: Staphylococcus aureus ATCC 6538; test: Time kill method (ASTM E 2315), S. aureus; assay type: cell-based; details: 0.5% ADBAC Quat
Method: as §1, §2, §3, §4

[3] = 30 seconds exposure, 1.95% w/w foam boosting agent (amine oxide), 1.25% Poly Trimoniumhydroxypropyl Cocoglucosides Chloride
[4] = 30 seconds exposure, 3.0% w/w foam boosting agent (amine oxide), 1.25% Poly Trimoniumhydroxypropyl Cocoglucosides Chloride
[5] = 30 seconds exposure, 4.2% w/w foam boosting agent (amine oxide), 1.25% Poly Trimoniumhydroxypropyl Cocoglucosides Chloride
[6] = Table 10, 1.25% w/w quaternized sugar-derived surfactant, 1.95% Alkyl Dimethyl Amine Oxide

Substance | E. coli Log Reduction [1, 6] | S. aureus Log Reduction [2, 6] | other results
Alkyl Dimethyl Amine Oxide | – | – | E. coli Log Reduction [1, 3]: >5.5; E. coli Log Reduction [1, 4]: >5.5; E. coli Log Reduction [1, 5]: >5.5; S. aureus Log Reduction [2, 3]: >5.5; S. aureus Log Reduction [2, 4]: >5.5; S. aureus Log Reduction [2, 5]: >5.5
Cocoglucosides Hydroxypropyl-trimonium Chloride [TM8610] | >5.0 | >5.0 | –
Lauridimonium-hydroxypropyl Cocoglucosides Chloride [Formula L8610] | >5.0 | >5.0 | –
Lauridimonium-hydroxypropyl Laurylglucosides Chloride [Formula L1210] | >5.0 | >5.0 | –
Laurylglucosides Hydroxypropyl-trimonium Chloride [TM1212] | >5.0 | >5.0 | –
Stearyldimonium-hydroxypropyl Laurylglucosides Chloride [Formula S1218] | >5.0 | >5.0 | –

— patent publication US9474703B2, “Antimicrobial compositions containing cationic active ingredients and quaternary sugar derived surfactants” (Ecolab USA Inc., priority 2010, dated 2016)
